Experimental data: patent US20050282755A1, “Compositions having antimicrobial activity and uses thereof” (priority 2004, published 2005)
In brackets after ≈: the same amount, converted by molar mass. Where two headings read alike, the source gives them in different places. Non-standard residues stand in square brackets, D forms with d. Residues, ends and D or L forms follow the SMILES beside them. *: point of attachment. Lauroyl = CCCCCCCCCCCC(=O)*; Hexanoyl = CCCCCC(=O)*

Columns and labels:
Type in all cases: cell-based
[1] = tested on: Propionibacterium acnes ATCC 6919; assay: MIC, agar dilution method NCCLS M11-A6, Brucella agar, anaerobic (Table 9, superscript c); settings: ATCC 6919
Description: A bacterial suspension was prepared to allow for a final inoculum on the plate of 1.5×10^8 CFU/milliliter. After the suspension absorbed into the agar surface, the plates were incubated for 48-96 hours at 37° C. in a GasPak anaerobic chamber. The lowest concentration of peptide that contained no colony growth on the agar plate was determined as the MIC. MIC values that utilized this method of MIC determination are indicated in Table 9 with a superscript letter “c.”

[2] = tested on: Staphylococcus aureus ATCC 29213; assay: MIC, NCCLS M7-A6 broth microdilution, cation-adjusted Mueller Hinton broth (Table 9, no superscript)
Method in brief: (§1)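 Values come from a broth microdilution assay run in cation-adjusted Mueller Hinton broth with an inoculum of 5×10^5 to 1×10^6 CFU/milliliter, incubated overnight at 37° C and read as absence of visible turbidity.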

Salmonella dublin (Lane) = assay: MIC, NCCLS M7-A6 broth microdilution (Table 9, no superscript)
Method in brief: as §1

[3] = tested on: Candida albicans ATCC 18804; assay: MIC in yeasts, NCCLS M27-A2 broth microdilution, RPMI 1640 (Table 9, letter e)
Description: Briefly, RPMI 1640 supplemented with glutamine and phenol red as a pH indicator was used in the broth microdilution method. A 96-well plate was inoculated so that the final inoculum of yeast for each well contained between 0.5×10^3 and 2.5×10^3 CFU/milliliter. […] Plates were incubated for 24 to 48 hours at 37° C. The lowest concentration of peptide that contained no visible growth was determined as the MIC. MIC values that utilized this method of MIC determination are indicated in Table 9 with a subscript letter “e.” “Peptide Number” corresponds to peptide compositions and corresponding designations in Table 3.

[4] = tested on: Pseudomonas aeruginosa ATCC 27853; assay: MIC, NCCLS M7-A6 broth microdilution (Table 9, no superscript)
Method in brief: as §1

[5] = tested on: Escherichia coli ATCC 25922; assay: as above
Method in brief: as §1

[6] = tested on: Staphylococcus epidermidis ATCC 12228; assay: as above
Method in brief: as §1

[7] = no superscript: NCCLS M7-A6 broth microdilution

Molecule	MIC P. acnes [1] [c ug/mL]	MIC S. aureus ([2]; ATCC 29213) [µg/mL]	MIC S. dublin (Salmonella dublin (Lane)) [µg/mL]	MIC C. albicans ([3]; ATCC 18804) [e ug/mL]	MIC P. aeruginosa ([4]; ATCC 27853) [µg/mL]	MIC E. coli ([5]; ATCC 25922) [µg/mL]	MIC S. epidermidis ([6]; ATCC 12228) [µg/mL]	MIC S. aureus [2, 7] [µg/mL]	MIC C. albicans ([3]; letter e: NCCLS M27-A2 broth microdilution, RPMI 1640) [e ug/mL]	MIC P. aeruginosa [4, 7] [µg/mL]	MIC E. coli [5, 7] [µg/mL]	MIC S. epidermidis [6, 7] [µg/mL]	MIC S. dublin (Salmonella dublin (Lane); [7]) [µg/mL]
Lauryl-rsrwrdvarfm-NH2 [Peptide 115]	4												
CCCCCC(=O)N[C@@H](CCCNC(=N)N)C(=O)N[C@@H](CO)C(=O)N[C@@H](CCCNC(=N)N)C(=O)N[C@@H](Cc1c[nH]c2ccccc12)C(=O)N[C@@H](CCCNC(=N)N)C(=O)N[C@@H](CC(=O)O)C(=O)N[C@H](C(=O)N[C@@H](C)C(=O)N[C@@H](CCCNC(=N)N)C(=O)N[C@@H](CC(N)=O)C(=O)N[C@@H](Cc1ccccc1)C(=O)N[C@@H](CCSC)C(=O)N[C@@H](CCCNC(=N)N)C(N)=O)C(C)C [Peptide 202, Hexyl-RSRWRDVARNFMR-NH2] (Hexanoyl-RSRWRDVARNFMR-NH2)	>64	>64	>64										
CCCCCCCCCCCC(=O)N[C@H](CCCNC(=N)N)C(=O)N[C@H](CC(=O)O)C(=O)N[C@@H](C(=O)N[C@H](C)C(=O)N[C@H](CCCNC(=N)N)C(=O)N[C@H](CC(N)=O)C(=O)N[C@H](Cc1ccccc1)C(N)=O)C(C)C [Peptide 124, Lauryl-rdvarnf-NH2] (Lauroyl-[dR][dD][dV][dA][dR][dN][dF]-NH2)		>64	>64	64	>64	>64	>64						
CCCCCCCCCCCC(=O)N[C@H](CCCNC(=N)N)C(=O)N[C@H](CO)C(=O)N[C@H](CCCNC(=N)N)C(=O)N[C@H](Cc1c[nH]c2ccccc12)C(=O)N[C@H](CCCNC(=N)N)C(=O)N[C@H](CC(=O)O)C(=O)N[C@@H](C(=O)N[C@H](C)C(N)=O)C(C)C [Peptide 119, Lauryl-rsrwrdva-NH2] (Lauroyl-[dR][dS][dR][dW][dR][dD][dV][dA]-NH2)		32 (≈ 26.1 µM)	64 (≈ 52.2 µM)	16	32 (≈ 26.1 µM)	64 (≈ 52.2 µM)	16 (≈ 13 µM)						
CCCCCCCCCCCC(=O)N[C@@H](CCCNC(=N)N)C(=O)N[C@@H](CO)C(=O)N[C@@H](CCCNC(=N)N)C(=O)N[C@@H](Cc1c[nH]c2ccccc12)C(=O)N[C@@H](CCCNC(=N)N)C(=O)N[C@@H](CC(=O)O)C(=O)N[C@H](C(=O)N[C@@H](C)C(=O)N[C@@H](CCCNC(=N)N)C(=O)N[C@@H](CC(N)=O)C(=O)N[C@@H](Cc1ccccc1)C(=O)N[C@@H](CCSC)C(=O)N[C@@H](CCCNC(=N)N)C(=O)N[C@@H](Cc1c[nH]c2ccccc12)C(=O)N[C@@H](Cc1c[nH]c2ccccc12)C(N)=O)C(C)C [Peptide 142, Lauryl-RSRWRDVARNFMRWW-NH2] (Lauroyl-RSRWRDVARNFMRWW-NH2)		64 (≈ 27.8 µM)	>64	4	>64	64 (≈ 27.8 µM)	8 (≈ 3.47 µM)						
CCCCCCCCCCCC(=O)N[C@@H](C(=O)N[C@H](C)C(=O)N[C@H](CCCNC(=N)N)C(=O)N[C@H](CC(N)=O)C(=O)N[C@H](Cc1ccccc1)C(=O)N[C@H](CCSC)C(=O)N[C@H](CCCNC(=N)N)C(N)=O)C(C)C [Peptide 126, Lauryl-varnfmr-NH2] (Lauroyl-[dV][dA][dR][dN][dF][dM][dR]-NH2)		>64	>64	8	>64	>64	>64						
CCCCCCCCCCCC(=O)N[C@H](Cc1c[nH]c2ccccc12)C(=O)N[C@H](CCCNC(=N)N)C(=O)N[C@H](CC(=O)O)C(=O)N[C@@H](C(=O)N[C@H](C)C(=O)N[C@H](CCCNC(=N)N)C(=O)N[C@H](CC(N)=O)C(=O)N[C@H](Cc1ccccc1)C(=O)N[C@H](CCSC)C(=O)N[C@H](CCCNC(=N)N)C(N)=O)C(C)C [Peptide 129, Lauryl-wrdvarnfmr-NH2] (Lauroyl-[dW][dR][dD][dV][dA][dR][dN][dF][dM][dR]-NH2)		>64	>64	>64	>64	>64	32 (≈ 20.9 µM)						
CCCCCCCCCCCC(=O)N[C@@H](CCCNC(=N)N)C(=O)N[C@@H](CO)C(=O)N[C@@H](CCCNC(=N)N)C(=O)N[C@@H](Cc1c[nH]c2ccccc12)C(=O)N[C@@H](CCCNC(=N)N)C(=O)N[C@@H](CC(=O)O)C(=O)N[C@@H](Cc1c[nH]c2ccccc12)C(=O)N[C@@H](Cc1c[nH]c2ccccc12)C(=O)N[C@@H](CCCNC(=N)N)C(=O)N[C@@H](CC(N)=O)C(=O)N[C@@H](Cc1c[nH]c2ccccc12)C(=O)N[C@@H](CCSC)C(=O)N[C@@H](CCCNC(=N)N)C(=O)N[C@@H](CC(C)C)C(=O)N[C@@H](CC(C)C)C(N)=O [Peptide 148, Lauryl-RSRWRDWWRNWMRLL-NH2] (Lauroyl-RSRWRDWWRNWMRLL-NH2)		>64	>64	4	>64	>64	>64						
Lauryl-dvarfm-NH2 [Peptide 125]								>64	>64	>64	>64	>64	>64
CCCCCCCCCCCC(=O)N[C@H](CO)C(=O)N[C@H](CCCNC(=N)N)C(=O)N[C@H](Cc1c[nH]c2ccccc12)C(=O)N[C@H](CCCNC(=N)N)C(=O)N[C@H](CC(=O)O)C(=O)N[C@@H](C(=O)N[C@H](C)C(N)=O)C(C)C [Peptide 121, Lauryl-srwrdva-NH2] (Lauroyl-[dS][dR][dW][dR][dD][dV][dA]-NH2)		>64	>64	>64	>64	>64	>64						
CCCCCCCCCCCC(=O)N[C@H](Cc1c[nH]c2ccccc12)C(=O)N[C@H](CCCNC(=N)N)C(=O)N[C@H](CC(=O)O)C(=O)N[C@@H](C(=O)N[C@H](C)C(=O)N[C@H](CCCNC(=N)N)C(=O)N[C@H](CC(N)=O)C(N)=O)C(C)C [Peptide 123, Lauryl-wrdvarn-NH2] (Lauroyl-[dW][dR][dD][dV][dA][dR][dN]-NH2)		>64	>64	64	>64	>64	64 (≈ 58.3 µM)						
CCCCCCCCCCCC(=O)N[C@@H](CCCNC(=N)N)C(=O)N[C@@H](CO)C(=O)N[C@@H](CCCNC(=N)N)C(=O)N[C@@H](Cc1c[nH]c2ccccc12)C(=O)N[C@@H](CCCNC(=N)N)C(=O)N[C@@H](CC(=O)O)C(=O)N[C@@H](Cc1c[nH]c2ccccc12)C(=O)N[C@@H](Cc1c[nH]c2ccccc12)C(=O)N[C@@H](CCCNC(=N)N)C(=O)N[C@@H](CC(N)=O)C(=O)N[C@@H](Cc1c[nH]c2ccccc12)C(=O)N[C@@H](CCSC)C(=O)N[C@@H](CCCNC(=N)N)C(N)=O [Peptide 147, Lauryl-RSRWRDWWRNWMR-NH2] (Lauroyl-RSRWRDWWRNWMR-NH2)		64 (≈ 29.5 µM)	64 (≈ 29.5 µM)	2	>64	64 (≈ 29.5 µM)	2 (≈ 0.921 µM)						
